Source: ChEMBL document CHEMBL1127091, “Design of 5-(3,5-di-tert-butyl-4-hydroxyphenyl)-1,3,4-thiadiazoles, -1,3,4-oxadiazoles, and -1,2,4-triazoles as orally-active, nonulcerogenic antiinflammatory agents” (J Med Chem, 1993)
pIC50: −log10 of the molar value.

Columns and labels:
[1] = Partition coefficient (logP); format: physicochemical; details: octanol/water
[2] = target: T1, Polyunsaturated fatty acid 5-lipoxygenase (Rattus norvegicus, UniProt P12527)
T1 sequence (P12527 whole entry): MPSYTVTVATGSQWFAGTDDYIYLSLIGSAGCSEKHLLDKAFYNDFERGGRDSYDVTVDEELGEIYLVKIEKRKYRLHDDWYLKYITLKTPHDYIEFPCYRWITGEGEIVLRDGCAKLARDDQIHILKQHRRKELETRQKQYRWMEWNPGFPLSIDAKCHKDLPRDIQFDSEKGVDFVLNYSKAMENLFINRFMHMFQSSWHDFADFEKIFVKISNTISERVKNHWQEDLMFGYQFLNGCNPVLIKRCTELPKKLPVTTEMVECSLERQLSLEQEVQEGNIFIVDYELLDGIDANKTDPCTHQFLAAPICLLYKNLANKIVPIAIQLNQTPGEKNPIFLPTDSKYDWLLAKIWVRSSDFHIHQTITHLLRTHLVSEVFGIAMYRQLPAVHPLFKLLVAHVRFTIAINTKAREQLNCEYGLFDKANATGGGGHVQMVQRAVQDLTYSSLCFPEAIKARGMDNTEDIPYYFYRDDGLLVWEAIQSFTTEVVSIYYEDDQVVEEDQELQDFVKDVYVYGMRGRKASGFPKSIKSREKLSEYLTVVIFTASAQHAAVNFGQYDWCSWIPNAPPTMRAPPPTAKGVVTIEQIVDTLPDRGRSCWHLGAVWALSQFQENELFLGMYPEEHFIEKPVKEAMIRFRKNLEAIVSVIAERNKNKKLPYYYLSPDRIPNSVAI
Description: Tested for inhibition of 5-LO by measuring the reduction of leukotriene B4 (LTB4) in intact basophilic rat leukemia cells

Cyclooxygenase = target: T2, Cyclooxygenase (Rattus norvegicus, UniProt P35355+Q63921)
T2 sequence (P35355 whole entry): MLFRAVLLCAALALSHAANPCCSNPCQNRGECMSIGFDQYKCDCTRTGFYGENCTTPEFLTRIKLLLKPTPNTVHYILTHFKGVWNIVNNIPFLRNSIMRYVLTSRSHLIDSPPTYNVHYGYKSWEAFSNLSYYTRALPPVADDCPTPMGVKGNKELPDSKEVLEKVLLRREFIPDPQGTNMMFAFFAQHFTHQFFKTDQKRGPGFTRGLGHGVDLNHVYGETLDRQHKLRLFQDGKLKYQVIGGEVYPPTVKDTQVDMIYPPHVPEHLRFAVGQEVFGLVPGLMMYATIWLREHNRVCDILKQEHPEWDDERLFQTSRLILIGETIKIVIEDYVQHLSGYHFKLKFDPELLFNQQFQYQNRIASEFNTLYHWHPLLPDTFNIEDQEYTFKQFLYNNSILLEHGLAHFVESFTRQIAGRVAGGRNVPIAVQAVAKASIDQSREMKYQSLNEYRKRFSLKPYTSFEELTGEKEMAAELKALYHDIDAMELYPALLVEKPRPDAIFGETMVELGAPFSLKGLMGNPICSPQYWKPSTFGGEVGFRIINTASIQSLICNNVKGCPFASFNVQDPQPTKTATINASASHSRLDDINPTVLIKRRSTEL
T2 sequence (Q63921 whole entry): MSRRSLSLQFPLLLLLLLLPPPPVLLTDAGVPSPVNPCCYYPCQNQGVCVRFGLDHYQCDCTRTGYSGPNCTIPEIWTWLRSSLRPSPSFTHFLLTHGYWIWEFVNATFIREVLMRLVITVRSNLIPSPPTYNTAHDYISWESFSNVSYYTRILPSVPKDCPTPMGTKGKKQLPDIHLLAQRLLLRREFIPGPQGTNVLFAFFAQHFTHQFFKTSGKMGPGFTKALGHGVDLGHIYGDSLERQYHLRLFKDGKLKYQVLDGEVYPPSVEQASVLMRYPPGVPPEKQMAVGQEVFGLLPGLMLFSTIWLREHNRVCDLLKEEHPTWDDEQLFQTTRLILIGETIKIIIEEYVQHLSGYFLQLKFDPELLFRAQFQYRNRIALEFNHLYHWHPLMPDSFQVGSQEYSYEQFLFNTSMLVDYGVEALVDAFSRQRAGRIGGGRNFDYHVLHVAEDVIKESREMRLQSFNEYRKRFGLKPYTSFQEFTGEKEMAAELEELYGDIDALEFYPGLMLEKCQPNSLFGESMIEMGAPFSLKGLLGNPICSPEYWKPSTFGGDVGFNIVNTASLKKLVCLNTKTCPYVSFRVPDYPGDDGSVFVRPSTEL
Description: Inhibition of prostaglandin G/H synthase by measuring the reduction of prostaglandin F2-alpha in intact basophilic rat leukemia cells

[3] = target: T1, Polyunsaturated fatty acid 5-lipoxygenase; remark: listed apart in the source
Description: Inhibition of 5-lipoxygenase measured by the reduction of leukotriene B4 (LTB4) in intact basophilic rat leukemia cells

Rattus norvegicus [4] = assay: In vivo inflammatory activity measured on Mycobacterium foot-pad edema (MFE) model, peroral administration; format: functional
Rattus norvegicus [5] = assay: In vivo inflammatory activity measured on Carrageenan foot-pad edema (CFE) in rats, peroral administration; format: functional
Rattus norvegicus [6] = assay: In vivo inflammatory activity measured on Gastric ulcerogenicity, (n= 10 rats per experimental group); format: functional, Stomach
Rattus norvegicus [7] = assay: In vivo inflammatory activity measured on Gastric ulcerogenicity, expressed as percent rats with ulcers at 200 mg/kg, po (n= 10 rats per experimental group); format: functional, Stomach
Rattus norvegicus [8] = assay: In vivo inflammatory activity measured on Mycobacterium foot-pad edema (MFE) model; format: functional
Rattus norvegicus [9] = assay: In vivo inflammatory activity measured on Gastric ulcerogenicity, expressed as percent rats with ulcers at 10 mg/kg, po (n= 10 rats per experimental group); format: functional, Stomach
Rattus norvegicus [10] = assay: In vivo inflammatory activity measured on Gastric ulcerogenicity (n= 10 rats per experimental group); format: functional, Stomach

## Cn1c(O)nnc1-c1cc(C(C)(C)C)c(O)c(C(C)(C)C)c1
[1]
  logP: 3.2

## COc1c(C(C)(C)C)cc(-c2nnc(S)s2)cc1C(C)(C)C
[2]
  pIC50: 6.04
Cyclooxygenase
  IC50: 0.35 µM

## CSc1nnc(/C=C/c2cc(C(C)(C)C)c(O)c(C(C)(C)C)c2)s1
[3]
  pIC50: < 5.00
Cyclooxygenase
  IC50: > 10 µM

## CC(C)(C)c1cc(-c2nnc(O)o2)cc(C(C)(C)C)c1O
Cyclooxygenase
  IC50: 2.5 µM
[1]
  logP: 3.4

## CC(C)(C)c1cc(-c2nnc(S)o2)cc(C(C)(C)C)c1O
[3]
  pIC50: 5.32
Cyclooxygenase
  IC50: 3.7 µM
[1]
  logP: 2.3
Rattus norvegicus [4]
  ID40: 59.9 mg/kg
Rattus norvegicus [5]
  ID40: 3.9 mg/kg

## CSc1nnc(-c2cc(C(C)(C)C)c(O)c(C(C)(C)C)c2)s1
[3]
  pIC50: 5.92
Cyclooxygenase
  IC50: 0.41 µM
[1]
  logP: > 4

## Cc1ccc(Cl)c(Nc2ccccc2C(=O)O)c1Cl [MECLOFENAMIC ACID]
Rattus norvegicus [6]
  UD50: 36.2 mg/kg
Rattus norvegicus [4]
  ID40: 0.35 mg/kg
Rattus norvegicus [5]
  ID40: 5.6 mg/kg

## CC(C)(C)c1cc(/C=C/c2nnc(N)o2)cc(C(C)(C)C)c1O
[3]
  pIC50: 5.96
Cyclooxygenase
  IC50: 8 µM

## Cn1nc(-c2cc(C(C)(C)C)c(O)c(C(C)(C)C)c2)sc1=S
[2]
  pIC50: 5.30
Cyclooxygenase
  IC50: 0.65 µM

## CC(C)(C)c1cc(-c2n[nH]c(N)n2)cc(C(C)(C)C)c1O
[3]
  pIC50: 5.29
Cyclooxygenase
  IC50: > 30 µM
[1]
  logP: 3.1

## CC(C)(C)c1cc(-c2nnc(N)o2)cc(C(C)(C)C)c1O
[3]
  pIC50: 6.15
Cyclooxygenase
  IC50: 2.4 µM
[1]
  logP: 3.7
Rattus norvegicus [5]
  ID40: 8.2 mg/kg

## CC(C)(C)c1cc(/C=C/c2nnc(S)s2)cc(C(C)(C)C)c1O
[3]
  pIC50: 5.74
Cyclooxygenase
  IC50: 5.2 µM
[1]
  logP: > 4

## CC(C)(C)c1cc(-c2nnc(N)s2)cc(C(C)(C)C)c1O
Rattus norvegicus [7]
  Activity: 10%
Cyclooxygenase
  IC50: 0.13 µM
[1]
  logP: 3.7
Rattus norvegicus [4]
  ID40: 2.3 mg/kg
Rattus norvegicus [5]
  ID40: 1.9 mg/kg

## CC(C)(C)c1cc(/C=C/c2n[nH]c(O)n2)cc(C(C)(C)C)c1O
[3]
  pIC50: 5.80
Cyclooxygenase
  IC50: > 32 µM
[1]
  logP: 3.8

## CON1CC/C(=C\c2cc(C(C)(C)C)c(O)c(C(C)(C)C)c2)C1=O [E-5110]
Rattus norvegicus [8]
  ID40: 1.9 mg/kg
Rattus norvegicus [9]
  Activity: 10%
[1]
  logP: > 4
Rattus norvegicus [5]
  ID40: 24.1 mg/kg

## CC(C)(C)c1cc(/C=C2\CCOC2=O)cc(C(C)(C)C)c1O
Rattus norvegicus [10]
  UD50: 93.1 mg/kg
[1]
  logP: > 4
Rattus norvegicus [4]
  ID40: 3.7 mg/kg
Rattus norvegicus [5]
  ID40: >10 mg/kg

## Cc1cc(/C=C/c2cc(C(C)(C)C)c(O)c(C(C)(C)C)c2)on1
[1]
  logP: > 4
Rattus norvegicus [4]
  ID40: 33 mg/kg

## CC(C)(C)c1cc(-c2n[nH]c(S)n2)cc(C(C)(C)C)c1O
[3]
  pIC50: 4.96
Cyclooxygenase
  IC50: 0.78 µM
[1]
  logP: 2.4

## Cn1c(S)nnc1-c1cc(C(C)(C)C)c(O)c(C(C)(C)C)c1
[3]
  pIC50: < 4.49
Cyclooxygenase
  IC50: > 32 µM
[1]
  logP: 3.7

## CC(C)(C)c1cc(/C=C/c2n[nH]c(S)n2)cc(C(C)(C)C)c1O
[3]
  pIC50: 5.62
Cyclooxygenase
  IC50: 6.7 µM
[1]
  logP: 3.1

## CC(C)(C)c1cc(-c2nnc(S)n2N)cc(C(C)(C)C)c1O
[3]
  pIC50: < 4.49
Cyclooxygenase
  IC50: > 32 µM
[1]
  logP: 3.3

## CC(C)(C)c1cc(-c2n[nH]c(O)n2)cc(C(C)(C)C)c1O
Cyclooxygenase
  IC50: 5.5 µM
[1]
  logP: 3.1

## CC(C)(C)c1cc(-c2nnc(O)s2)cc(C(C)(C)C)c1O
[3]
  pIC50: 5.23
Cyclooxygenase
  IC50: > 16 µM
[1]
  logP: 4

## CC(C)(C)c1cc(/C=C/c2nnc(O)o2)cc(C(C)(C)C)c1O
[3]
  pIC50: 6.68
Cyclooxygenase
  IC50: > 32 µM
[1]
  logP: 3.4

## CC(C)(C)c1cc(-c2n[nH]c(=S)s2)cc(C(C)(C)C)c1O.C[N+](C)(C)CCO
Rattus norvegicus [7]
  Activity: 0%
[1]
  logP: 2.7
Rattus norvegicus [4]
  ID40: 7.8 mg/kg
Rattus norvegicus [5]
  ID40: 1.1 mg/kg

## CC(C)(C)c1cc(/C=C/c2nnc(S)o2)cc(C(C)(C)C)c1O
[3]
  pIC50: 6.24
Cyclooxygenase
  IC50: 9.4 µM
[1]
  logP: 3
